Source: ChEMBL document CHEMBL1147945, “R-isomers of Arg-Gly-Asp (RGD) mimics as potent alphavbeta3 inhibitors” (Bioorg Med Chem, 2007)

Assays:
[1] = biological target: Integrin alpha-V/beta-3 (Homo sapiens, UniProt P05106+P06756); assay: Inhibition of alphaVbeta3 integrin receptor expressed in human 293 cells; format: cell-based, HEK293
[2] = biological target: T1, Integrin alpha-V/beta-6 (Homo sapiens, UniProt P06756+P18564); assay: Inhibition of alpha-V-beta-6 integrin receptor in human HT29 cells; format: cell-based, HT-29
T1 sequence (P06756 31-889 limits assumed): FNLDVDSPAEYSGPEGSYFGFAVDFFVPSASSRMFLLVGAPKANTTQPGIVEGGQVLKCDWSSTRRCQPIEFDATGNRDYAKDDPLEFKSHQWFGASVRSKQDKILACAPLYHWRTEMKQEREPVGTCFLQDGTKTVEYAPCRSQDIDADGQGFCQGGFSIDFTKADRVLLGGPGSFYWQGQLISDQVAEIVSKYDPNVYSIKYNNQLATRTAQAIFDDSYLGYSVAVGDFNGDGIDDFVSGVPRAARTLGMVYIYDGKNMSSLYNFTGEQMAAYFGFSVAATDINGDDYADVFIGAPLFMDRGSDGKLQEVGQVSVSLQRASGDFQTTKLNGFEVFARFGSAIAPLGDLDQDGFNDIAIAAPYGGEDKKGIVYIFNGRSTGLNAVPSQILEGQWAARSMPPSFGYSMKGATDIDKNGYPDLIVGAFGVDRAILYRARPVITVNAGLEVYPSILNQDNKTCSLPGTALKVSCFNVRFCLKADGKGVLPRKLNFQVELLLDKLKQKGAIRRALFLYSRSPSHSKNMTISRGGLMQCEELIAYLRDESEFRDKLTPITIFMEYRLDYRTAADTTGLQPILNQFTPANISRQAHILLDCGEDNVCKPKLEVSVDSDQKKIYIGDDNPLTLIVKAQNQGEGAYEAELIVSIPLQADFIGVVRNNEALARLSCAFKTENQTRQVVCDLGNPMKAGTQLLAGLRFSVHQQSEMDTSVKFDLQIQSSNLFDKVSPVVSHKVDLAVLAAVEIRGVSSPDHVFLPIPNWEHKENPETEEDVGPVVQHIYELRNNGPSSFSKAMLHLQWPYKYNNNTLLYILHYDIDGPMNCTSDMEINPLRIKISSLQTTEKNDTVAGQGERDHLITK
T1 sequence (P06756 891-1048 limits assumed): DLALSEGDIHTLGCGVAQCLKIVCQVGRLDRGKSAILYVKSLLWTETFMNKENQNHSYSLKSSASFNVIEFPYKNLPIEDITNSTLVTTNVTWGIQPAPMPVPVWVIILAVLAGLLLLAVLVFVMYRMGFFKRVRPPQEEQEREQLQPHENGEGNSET
T1 sequence (P18564 22-788 limits assumed): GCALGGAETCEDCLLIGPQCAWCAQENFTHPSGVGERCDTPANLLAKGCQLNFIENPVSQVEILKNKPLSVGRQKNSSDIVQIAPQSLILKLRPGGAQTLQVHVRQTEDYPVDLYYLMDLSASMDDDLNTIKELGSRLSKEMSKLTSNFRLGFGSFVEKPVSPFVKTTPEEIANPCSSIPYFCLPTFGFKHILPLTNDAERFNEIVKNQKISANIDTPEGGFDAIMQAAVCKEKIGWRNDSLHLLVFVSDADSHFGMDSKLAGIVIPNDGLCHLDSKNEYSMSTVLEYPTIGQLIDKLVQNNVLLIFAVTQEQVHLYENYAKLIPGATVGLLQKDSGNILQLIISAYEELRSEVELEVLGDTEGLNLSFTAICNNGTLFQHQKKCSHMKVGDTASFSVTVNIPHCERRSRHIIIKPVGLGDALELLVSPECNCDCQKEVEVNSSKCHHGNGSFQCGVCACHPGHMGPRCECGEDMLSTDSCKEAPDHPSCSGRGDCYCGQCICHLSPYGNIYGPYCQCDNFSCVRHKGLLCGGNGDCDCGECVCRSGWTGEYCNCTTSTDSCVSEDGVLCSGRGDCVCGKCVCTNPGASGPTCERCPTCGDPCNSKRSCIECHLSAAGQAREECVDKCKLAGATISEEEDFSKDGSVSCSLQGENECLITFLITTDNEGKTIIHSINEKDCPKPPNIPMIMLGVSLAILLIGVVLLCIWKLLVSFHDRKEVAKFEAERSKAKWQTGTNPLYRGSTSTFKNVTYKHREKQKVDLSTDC

[3] = biological target: T1, Integrin alpha-V/beta-6; assay: Inhibition of alpha-V-beta-6 integrin receptor in human 293 cells; format: cell-based, HEK293
[4] = Bioavailability in mouse at 20 mg/kg, po; format: ADME, organism-based; conditions: in vivo
[5] = Half life in mouse at 20 mg/kg po or 10 mg/kg iv; format: ADME, organism-based; conditions: in vivo

Integrin alpha-V/beta-3, sequence (P05106 27-788 limits assumed): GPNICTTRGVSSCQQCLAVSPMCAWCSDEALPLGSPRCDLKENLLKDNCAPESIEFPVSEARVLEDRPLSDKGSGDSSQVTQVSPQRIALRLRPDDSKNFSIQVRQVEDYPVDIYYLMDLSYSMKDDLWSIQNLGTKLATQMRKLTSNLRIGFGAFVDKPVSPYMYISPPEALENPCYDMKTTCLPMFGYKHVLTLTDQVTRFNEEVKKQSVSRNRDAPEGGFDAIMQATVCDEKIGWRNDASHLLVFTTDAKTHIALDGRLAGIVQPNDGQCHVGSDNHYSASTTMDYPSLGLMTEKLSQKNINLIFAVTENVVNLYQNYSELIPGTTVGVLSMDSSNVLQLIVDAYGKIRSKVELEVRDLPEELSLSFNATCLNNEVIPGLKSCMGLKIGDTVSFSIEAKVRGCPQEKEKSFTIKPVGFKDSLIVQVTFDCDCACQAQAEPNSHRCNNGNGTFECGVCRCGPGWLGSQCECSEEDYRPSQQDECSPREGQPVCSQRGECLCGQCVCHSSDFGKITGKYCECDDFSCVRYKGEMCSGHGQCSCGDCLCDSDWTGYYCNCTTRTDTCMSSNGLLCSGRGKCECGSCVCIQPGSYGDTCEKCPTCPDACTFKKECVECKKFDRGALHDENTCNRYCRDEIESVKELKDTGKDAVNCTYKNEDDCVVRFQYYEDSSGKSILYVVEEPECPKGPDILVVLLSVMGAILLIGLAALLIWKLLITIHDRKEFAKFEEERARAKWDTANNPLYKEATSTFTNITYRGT
Integrin alpha-V/beta-3, sequence (P06756 31-889 limits assumed): as the sequence (P06756 31-889 limits assumed) above
Integrin alpha-V/beta-3, sequence (P06756 891-1048 limits assumed): as the sequence (P06756 891-1048 limits assumed) above

SMILES	IC50 [1]	IC50 [2]	IC50 [3]	bioavailability [4]	half-life [5]
O=C(O)C[C@@H](NC(=O)CNC(=O)c1cc(O)cc(NC2=NCCCN2)c1)c1cc(Cl)cc(Br)c1O	10 nM	2740 nM	–	–	–
O=C(O)C[C@H](NC(=O)CNC(=O)c1cncc(NC2=NCC(O)CN2)c1)c1cc(Br)cc(Cl)c1O (some centres undefined)	0.3 nM	–	–	–	–
O=C(O)C[C@@H](NC(=O)CNC(=O)c1cc(O)cc(NC2=NCC(F)CN2)c1)c1cc(Br)cc(Cl)c1O (some centres undefined)	3 nM	71 nM	–	–	–
O=C(O)C[C@H](NC(=O)CNC(=O)c1cncc(NC2=NCC(F)CN2)c1)c1cc(Cl)cc(Br)c1O (some centres undefined)	0.4 nM	–	–	–	–
O=C(O)C[C@@H](NC(=O)CNC(=O)c1cc(O)cc(NC2=NCC(F)CN2)c1)c1cc(Cl)cc(Cl)c1 (some centres undefined)	11 nM	40 nM	–	–	–
O=C(O)C[C@@H](NC(=O)CNC(=O)c1cncc(NC2=NCC(O)CN2)c1)c1cc(Cl)cc(Br)c1O (some centres undefined)	1 nM	–	615 nM	–	–
Cc1cc(C)c(O)c([C@@H](CC(=O)O)NC(=O)CNC(=O)c2cc(O)cc(NC3=NCC(O)CN3)c2)c1 (some centres undefined)	54 nM	118 nM	–	–	–
Nc1cc(NC2=NCC(O)CN2)cc(C(=O)NCC(=O)N[C@H](CC(=O)O)c2cc(Cl)cc(Br)c2O)c1 (some centres undefined)	22 nM	8620 nM	–	–	–
O=C(O)C[C@@H](NC(=O)CNC(=O)c1cccc(NC2=NCC(O)CN2)c1)c1cc(Cl)cc(Br)c1O (some centres undefined)	5 nM	3530 nM	–	–	–
O=C(O)C[C@H](NC(=O)CNC(=O)c1cccc(NC2=NCC(O)CN2)c1)c1cc(Cl)cc(Cl)c1O (some centres undefined)	0.3 nM	–	–	–	–
O=C(O)C[C@@H](NC(=O)CNC(=O)c1cncc(NC2=NCC(O)CN2)c1)c1cc(Cl)cc(I)c1O (some centres undefined)	1 nM	–	622 nM	–	–
O=C(O)C[C@H](NC(=O)CNC(=O)c1cc(O)cc(N=C2NCC(O)CN2)c1)c1cc(Br)cc(Cl)c1O (some centres undefined)	2.7 nM	–	–	–	–
O=C(O)C[C@H](NC(=O)CNC(=O)c1cc(O)cc(N=C2NCC(F)CN2)c1)c1cc(Cl)cc(Br)c1O (some centres undefined)	0.6 nM	–	–	13.6%	5.1 h
O=C(O)C[C@@H](NC(=O)CNC(=O)c1cccc(NC2=NCCCN2)c1)c1cc(Br)cc(Cl)c1O	8 nM	88 nM	–	–	–
O=C(O)C[C@@H](NC(=O)CNC(=O)c1cc(O)cc(NC2=NCCCN2)c1)c1cc(Br)cc(Cl)c1O	10 nM	151 nM	–	–	–
O=C(O)C[C@H](NC(=O)CNC(=O)c1cc(O)cc(N=C2NCC(O)CN2)c1)c1cc(Cl)cc(Cl)c1O (some centres undefined)	0.9 nM	–	–	–	–
O=C(O)C[C@@H](NC(=O)CNC(=O)c1cc(O)cc(NC2=NCC(F)CN2)c1)c1cc(Cl)cc(Br)c1 (some centres undefined)	5 nM	57 nM	–	–	–

SMILES	IC50 [1]	IC50 [2]	IC50 [3]	bioavailability [4]	half-life [5]
Nc1cc(NC2=NCC(O)CN2)cc(C(=O)NCC(=O)N[C@H](CC(=O)O)c2cc(Cl)cc(I)c2O)c1 (some centres undefined)	0.3 nM	12300 nM	–	–	–
O=C(O)C[C@@H](NC(=O)CNC(=O)c1cccc(N=C2NCC(F)CN2)c1)c1cc(Cl)cc(Br)c1O (some centres undefined)	1 nM	1420 nM	–	–	–
O=C(O)C[C@@H](NC(=O)CNC(=O)c1cncc(NC2=NCC(O)CN2)c1)c1cc(Br)cc(Br)c1O (some centres undefined)	2 nM	1760 nM	–	–	–
O=C(O)C[C@H](NC(=O)CNC(=O)c1cccc(NC2=NCC(F)CN2)c1)c1cc(Cl)cc(Br)c1O (some centres undefined)	0.2 nM	–	–	–	–
O=C(O)C[C@@H](NC(=O)CNC(=O)c1cccc(NC2=NCCCN2)c1)c1cc(Cl)cc(I)c1O	7 nM	10000 nM	–	–	–
O=C(O)C[C@H](NC(=O)CNC(=O)c1cccc(NC2=NCCCN2)c1)c1cc(Cl)cc(Br)c1O	2 nM	–	–	–	–
O=C(O)C[C@@H](NC(=O)CNC(=O)c1cncc(NC2=NCC(O)CN2)c1)c1cc(Br)cc(Cl)c1O (some centres undefined)	1 nM	22800 nM	–	–	–
O=C(O)C[C@@H](NC(=O)CNC(=O)c1cc(O)cc(NC2=NCC(F)CN2)c1)c1cc(Cl)cc(Cl)c1O (some centres undefined)	1 nM	42 nM	–	–	–
O=C(O)C[C@@H](NC(=O)CNC(=O)c1cc(O)cc(NC2=NCC(F)CN2)c1)c1cc(Br)cc(Br)c1O (some centres undefined)	3 nM	3420 nM	–	–	–
O=C(O)C[C@@H](NC(=O)CNC(=O)c1cc(O)cc(NC2=NCC(O)CN2)c1)c1cc(Br)cc(Br)c1O (some centres undefined)	21 nM	96 nM	–	–	–
O=C(O)C[C@@H](NC(=O)CNC(=O)c1cc(O)cc(NC2=NCCCN2)c1)c1cc(Cl)cc(I)c1O	9 nM	–	1780 nM	–	–
Cc1cc(Cl)cc([C@@H](CC(=O)O)NC(=O)CNC(=O)c2cc(O)cc(NC3=NCC(O)CN3)c2)c1O (some centres undefined)	18 nM	688 nM	–	–	–
O=C(O)C[C@@H](NC(=O)CNC(=O)c1cc(O)cc(NC2=NCC(F)CN2)c1)c1cc(Br)cc(I)c1 (some centres undefined)	13 nM	11 nM	–	–	–
O=C(O)C[C@H](NC(=O)CNC(=O)c1cc(O)cc(NC2=NCCCN2)c1)c1cc(Cl)cc(Br)c1O	2 nM	–	–	–	–
O=C(O)C[C@@H](NC(=O)CNC(=O)c1cc(O)cc(NC2=NCC(O)CN2)c1)c1cc(Cl)cc(Cl)c1O (some centres undefined)	3 nM	–	64 nM	–	–
Nc1cc(NC2=NCC(O)CN2)cc(C(=O)NCC(=O)N[C@H](CC(=O)O)c2cc(Br)cc(Cl)c2O)c1 (some centres undefined)	33 nM	216 nM	–	–	–
